The values below come from patent US20060264508A1, “Modulation of ocular growth and myopia by gaba drugs” (priority 2001, published 2006).

“And” between values parts separate entries of the source, which are not always exact repeats. Identical values can stand only once. “Also recorded” adds a separate entry of the source.

The subject of test [1] is goggled eyes (form-deprivation myopia). The conditions noted are these: daily intravitreal injection, result in words.
Another test deals with non-goggled eyes. The format is in vivo, White leghorn chicks. The conditions noted are these: non-goggled eyes. An excerpt:
Chicks were anesthetized with inhalation ether for all goggle applications and drug injections. The experimental eye was the right eye in half of the chicks, and the left eye in the other half of the chicks, assigned in an alternating order within each group. Form-deprivation myopia was induced by attaching a unilateral translucent white plastic goggle to the periorbital feathers with cyanoacrylate glue. All research conformed with the ARVO Resolution on the Use of Animals in Ophthalmic and Vision Research.
All goggle applications and/or drug injections began when the chicks reached one week of age. At about four hours into the light phase, a 10 μl intravitreal injection of either drug+vehicle or vehicle alone was given under aseptic conditions to the goggled or experimental non-goggled eye, with all contralateral eyes concurrently receiving vehicle injections.
On this day, the animals received no intraocular injections. […] While still under general anesthesia, the chicks were decapitated; and the axial and equatorial dimensions of enucleated eyes were measured with digital calipers. As the coronal profile of the chick eye is elliptical, the equatorial dimension was reported as the mean of the shortest and longest equatorial dimensions.
For goggled chicks, the primary measure of outcome was the drug effect on the ocular response to wearing a goggle, and comparisons of individual doses to each other and to vehicle-treated controls for each drug. Differences in refraction and each size measurement between goggled and contralateral eyes were assessed by one-way analysis of variance (ANOVA). For non-goggled chicks, the primary outcome measure was comparison of drug-treated to contralateral vehicle-treated eyes using a two-way repeated measures ANOVA (one factor replication, using eye as the replicated factor) for refractions and measurements.
The statistical outcomes with the two-way ANOVA are mainly described by the drug-treated to contralateral eye comparison. […] When the ANOVA assumptions of normality or equal variance were not met, the corresponding ANOVA on ranks was used. […] The Figures show the P values when the overall ANOVA reached a significance level of at least P<0.05, and the post-hoc tests for within group comparisons appear in the Tables that follow.

[2] abbreviates: daily intravitreal dose(s) at which drug-treated differ from contralateral vehicle-treated eyes (P<0.05, Tukey test).
Where [3] appears, read: drug-treated vs contralateral vehicle-treated eyes, result in words.

Take `CP(=O)(O)C1=CCNCC1` [TPMPA, (1,2,5,6-tetraliydro-pyridine-4-yl) methyiphosphinic acid]: in test [1], the “effect on axial dimensions (axial length, vitreous chamber depth; ultrasound or calipers) of goggled eyes” value is “blocked the axial and vitreous chamber elongation as measured by ultrasound; also recorded: effects on axial growth as measured by calipers, did not reach statistical significance; also recorded: significantly reduces the axial length of the eye and vitreous chamber depth”; the “effect on equatorial diameter / equatorial expansion of goggled eyes (calipers)” value is “blocked the axial and vitreous chamber elongation as measured by ultrasound, and the equatorial expansion”; the “effect on myopic refraction of goggled eyes” value is “reduced the myopic refraction; also recorded: largely eliminates the myopic refractive shift”; the “overall effect on form-deprivation myopia (refraction and size measurements) of goggled eyes” value was “potent anti-myopia effects”. Further, in the test on non-goggled eyes (setting [2]), the axial length calipers was 200 & μg and 100 μg; the axial length ultrasound came out at 10 µg; the refraction entry was “§ (P < 0.05 by ANOVA for overall dose effect, but no significant effect identified for drug-treated vs. contralateral eyes; no specific pairwise comparison identified by the Tukey test.)”; the “vitreous chamber depth (ultrasound)” value is listed as “* (P < 0.05 by ANOVA for drug-treated vs. contralateral eyes, but no specific pair-wise comparison identified by the Tukey test.)”. In addition, in the test on non-goggled eyes (setting [3]), the “effect on axial growth / axial length and vitreous chamber depth of non-goggled eyes” value was “stimulated both axial growth and vitreous chamber length; also recorded: stimulates axial elongation and vitreous chamber depth”; the “effect on equatorial diameter of non-goggled eyes” value is recorded as “reduced the equatorial diameter; also recorded: equatorial dimension actually diminished”; the “effect on refraction of non-goggled eyes” value is “slight myopic refractive shift; also recorded: without altering refraction”.
